Assay results published in PubChem BioAssay AID248 (DTP/NCI, 2004).
Values joined by “and” are separate entries in the source; they are usually repeats but may differ in a detail not shown here. Equal values may be shown once. Inconclusive results and toxic doses are left out. No stated cut-off is given here; in the data, active means T/C of 150% or more; inactive means T/C below 125%.

Tested on: L1210 leukemia ip in BDF1 mice, survival T/C
Assay: NCI In Vivo Anticancer Drug Screen. Data for tumor model L1210 Leukemia (intraperitoneal) in B6D2F1 (BDF1) mice
Conditions: endpoint: mean survival time, higher = longer survival
Procedure, shortened: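 Read-out is survival time, reported as the treated-group measurement over the vehicle-control measurement.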

[1] = dose: 100.0 mg/kg/injection, schedule: Q04DX003 (ip), vehicle: saline
[2] = dose: 200.0 mg/kg/injection, schedule: Q04DX003 (ip), vehicle: saline
[3] = dose: 400.0 mg/kg/injection, schedule: Q04DX003 (ip), vehicle: saline
[4] = dose: 100.0 mg/kg/injection, schedule: Q01DX009 (ip), vehicle: Klucel (hydroxypropylcellulose) (HPC)
[5] = dose: 100.0 mg/kg/injection, schedule: Q04DX003 (ip), vehicle: Klucel (hydroxypropylcellulose) (HPC)
[6] = dose: 200.0 mg/kg/injection, schedule: Q01DX009 (ip), vehicle: Klucel (hydroxypropylcellulose) (HPC)
[7] = dose: 200.0 mg/kg/injection, schedule: Q04DX003 (ip), vehicle: Klucel (hydroxypropylcellulose) (HPC)
[8] = dose: 400.0 mg/kg/injection, schedule: Q01DX009 (ip), vehicle: Klucel (hydroxypropylcellulose) (HPC)
[9] = dose: 400.0 mg/kg/injection, schedule: Q04DX003 (ip), vehicle: Klucel (hydroxypropylcellulose) (HPC)
[10] = dose: 25.0 mg/kg/injection, schedule: Q01DX009 (ip), vehicle: Klucel (hydroxypropylcellulose) (HPC)
[11] = dose: 50.0 mg/kg/injection, schedule: Q01DX009 (ip), vehicle: Klucel (hydroxypropylcellulose) (HPC)
[12] = dose: 100.0 mg/kg/injection, schedule: Q01DX009 (ip), vehicle: saline
[13] = dose: 100.0 mg/kg/injection, schedule: Q01DX001 (ip), vehicle: Klucel (hydroxypropylcellulose) (HPC)
[14] = dose: 200.0 mg/kg/injection, schedule: Q01DX001 (ip), vehicle: Klucel (hydroxypropylcellulose) (HPC)
[15] = dose: 400.0 mg/kg/injection, schedule: Q01DX001 (ip), vehicle: Klucel (hydroxypropylcellulose) (HPC)

Measured: T/C

CC1=C(/C=C/C(C)=C/C=C/C(C)=C/C=O)C(C)(C)CCC1
inactive: dose: 50.0 mg/kg/injection, schedule: Q01DX009 (ip), vehicle: steriod suspending solution 89 % of control and 95 % of control | dose: 100.0 mg/kg/injection, schedule: Q01DX009 (ip), vehicle: steriod suspending solution 92 % of control | dose: 200.0 mg/kg/injection, schedule: Q01DX001 (sc), vehicle: steriod suspending solution 96 % of control and 95 % of control | dose: 400.0 mg/kg/injection, schedule: Q01DX001 (sc), vehicle: steriod suspending solution 96 % of control

CCCC/C=C/Br
inactive: [1] 100 % of control | dose: 200.0 mg/kg/injection, schedule: Q01DX009 (ip), vehicle: acetone 101 % of control | [2] 108 % of control | [3] 105 % of control

Cc1cccc(C)c1NC(=O)c1cccc(C(=O)Nc2c(C)cccc2C)c1
inactive: [4] 98 % of control | [5] 96 % of control | [6] 111 % of control | [7] 87 % of control | [8] 105 % of control | [9] 86 % of control

CCCCCCCCCC(=O)NN=C(C)C
inactive: dose: 12.5 mg/kg/injection, schedule: Q01DX009 (ip), vehicle: Klucel (hydroxypropylcellulose) (HPC) 92 % of control | [10] 105 % of control | [11] 116 % of control

O=C(NCc1ccccc1Cl)NC1CCCCC1
inactive: dose: 100.0 mg/kg/injection, schedule: Q04DX002 (ip), vehicle: Klucel (hydroxypropylcellulose) (HPC) 87 % of control | dose: 200.0 mg/kg/injection, schedule: Q04DX002 (ip), vehicle: Klucel (hydroxypropylcellulose) (HPC) 102 % of control | dose: 400.0 mg/kg/injection, schedule: Q04DX002 (ip), vehicle: Klucel (hydroxypropylcellulose) (HPC) 105 % of control

Cc1ccc(S(=O)(=O)N(CCC(=N)N)C(C)C)cc1
inactive: dose: 25.0 mg/kg/injection, schedule: Q01DX009 (ip), vehicle: saline 91 % of control | dose: 50.0 mg/kg/injection, schedule: Q01DX009 (ip), vehicle: saline 96 % of control | [12] 96 % of control | [1] 104 % of control

Cc1ccccc1[P+](Cc1ccccc1)(c1ccccc1C)c1ccccc1C
inactive: dose: 15.0 mg/kg/injection, schedule: Q01DX001 (ip), vehicle: carboxymethylcellulose (CMC) 96 % of control | dose: 30.0 mg/kg/injection, schedule: Q01DX001 (ip), vehicle: carboxymethylcellulose (CMC) 94 % of control | dose: 60.0 mg/kg/injection, schedule: Q01DX001 (ip), vehicle: carboxymethylcellulose (CMC) 94 % of control

CCCCC(=O)OCC(=O)[C@]1(O)Cc2c(O)c3c(c(O)c2[C@@H](OC2CC(NC(=O)C(F)(F)F)C(O)C(C)O2)C1)C(=O)c1c(OC)cccc1C3=O (some centres undefined)
active: dose: 30.0 mg/kg/injection, schedule: Q01DX004 (ip), vehicle: saline with Tween-80 166 % of control | dose: 40.0 mg/kg/injection, schedule: Q01DX004 (ip), vehicle: other 164 % of control and 375 % of control | dose: 50.0 mg/kg/injection, schedule: Q01DX004 (ip), vehicle: other 372 % of control and 470 % of control | dose: 60.0 mg/kg/injection, schedule: Q01DX004 (ip), vehicle: other 177 % of control and 441 % of control
inactive: dose: 7.5 mg/kg/injection, schedule: Q01DX004 (ip), vehicle: saline with Tween-80 108 % of control and 112 % of control | dose: 10.0 mg/kg/injection, schedule: Q01DX004 (ip), vehicle: saline with Tween-80 117 % of control and 119 % of control and 120 % of control

CC1=CC(=O)NC1=O
inactive: dose: 25.0 mg/kg/injection, schedule: Q04DX003 (ip), vehicle: saline 103 % of control | dose: 50.0 mg/kg/injection, schedule: Q04DX003 (ip), vehicle: saline 98 % of control | [1] 97 % of control

O=C(O)c1ccc(N2C(=O)c3ccccc3C2=O)cc1[N+](=O)[O-]
inactive: [12] 103 % of control | [1] 100 % of control | dose: 200.0 mg/kg/injection, schedule: Q01DX009 (ip), vehicle: saline 108 % of control | [2] 104 % of control | dose: 400.0 mg/kg/injection, schedule: Q01DX009 (ip), vehicle: saline 107 % of control | [3] 107 % of control

O=C1CC2(CCN(Cc3ccccc3)CC2)C(=O)N1N1CCCC1
inactive: [13] 91 % of control | [14] 88 % of control | [15] 89 % of control

CCOC(=O)c1ccccc1NC(=O)Nc1cc([N+](=O)[O-])ccc1F
inactive: [5] 88 % of control | [7] 92 % of control | [9] 86 % of control

COC1C=CC2OC(c3ccccc3)OCC2O1 (centres undefined)
inactive: dose: 100.0 mg/kg/injection, schedule: Q01DX001 (ip), vehicle: other 101 % of control | dose: 200.0 mg/kg/injection, schedule: Q01DX001 (ip), vehicle: other 101 % of control | dose: 400.0 mg/kg/injection, schedule: Q01DX001 (ip), vehicle: other 109 % of control

CCCCOC(=O)C1CCCCC1C(=O)OCCCC (centres undefined)
inactive: [11] 102 % of control | [4] 102 % of control | [6] 90 % of control

COc1cc(C2N=C(N)N=C(N)N2c2ccc(S(N)(=O)=O)cc2)cc(OC)c1OC (centres undefined)
inactive: dose: 75.0 mg/kg/injection, schedule: Q01DX001 (ip), vehicle: saline 93 % of control | dose: 150.0 mg/kg/injection, schedule: Q01DX001 (ip), vehicle: saline 96 % of control

Nc1c(Cl)ccc2c(Cl)ccnc12
inactive: dose: 100.0 mg/kg/injection, schedule: Q01DX001 (ip), vehicle: saline 111 % of control | dose: 150.0 mg/kg/injection, schedule: Q04DX003 (ip), vehicle: other 89 % of control | dose: 200.0 mg/kg/injection, schedule: Q01DX001 (ip), vehicle: saline 98 % of control | dose: 300.0 mg/kg/injection, schedule: Q04DX003 (ip), vehicle: other 97 % of control | dose: 400.0 mg/kg/injection, schedule: Q01DX001 (ip), vehicle: saline 104 % of control

COc1ccc2c(c1OC)CCN1C3=C(CC(OC(=O)c4ccccc4)CC3)C(=O)CC21 (centres undefined)
inactive: [13] 96 % of control | dose: 100.0 mg/kg/injection, schedule: Q01DX009 (ip), vehicle: saline sonified 93 % of control | [14] 94 % of control | dose: 200.0 mg/kg/injection, schedule: Q01DX009 (ip), vehicle: saline sonified 95 % of control | [15] 97 % of control | dose: 400.0 mg/kg/injection, schedule: Q01DX009 (ip), vehicle: saline sonified 93 % of control

CC(C)c1cc[n+](/C(C(=S)Nc2cccc(Cl)c2)=C(/[O-])c2ccc([N+](=O)[O-])cc2)cc1
inactive: [4] 105 % of control | [6] 91 % of control | [8] 94 % of control

C/C=C(/C(=O)NC(N)=O)C(C)C
inactive: [10] 114 % of control | [11] 97 % of control | [4] 111 % of control | [6] 103 % of control | [8] 103 % of control

O=C(OC1CC2CC1C1C=CCC21)c1ccc([N+](=O)[O-])cc1 (centres undefined)
inactive: dose: 44.0 mg/kg/injection, schedule: Q01DX001 (ip), vehicle: carboxymethylcellulose (CMC) 94 % of control and 97 % of control | dose: 50.0 mg/kg/injection, schedule: Q01DX001 (ip), vehicle: carboxymethylcellulose (CMC) 102 % of control | dose: 67.0 mg/kg/injection, schedule: Q01DX001 (ip), vehicle: carboxymethylcellulose (CMC) 94 % of control and 100 % of control | [13] 104 % of control | dose: 100.0 mg/kg/injection, schedule: Q01DX001 (ip), vehicle: carboxymethylcellulose (CMC) 94 % of control and 100 % of control | [4] 101 % of control | dose: 150.0 mg/kg/injection, schedule: Q01DX001 (ip), vehicle: carboxymethylcellulose (CMC) 86 % of control and 91 % of control | [14] 93 % of control | dose: 200.0 mg/kg/injection, schedule: Q01DX001 (ip), vehicle: carboxymethylcellulose (CMC) 90 % of control | [6] 104 % of control | [15] 104 % of control | dose: 400.0 mg/kg/injection, schedule: Q01DX001 (ip), vehicle: carboxymethylcellulose (CMC) 96 % of control | [8] 101 % of control

O=C(/C=C/c1ccc(O)cc1)c1ccccc1
inactive: dose: 100.0 mg/kg/injection, schedule: Q01DX009 (ip), vehicle: saline with Tween-80 102 % of control | dose: 100.0 mg/kg/injection, schedule: Q04DX003 (ip), vehicle: saline with Tween-80 109 % of control | dose: 200.0 mg/kg/injection, schedule: Q01DX009 (ip), vehicle: saline with Tween-80 108 % of control | dose: 200.0 mg/kg/injection, schedule: Q04DX003 (ip), vehicle: saline with Tween-80 102 % of control | dose: 400.0 mg/kg/injection, schedule: Q01DX009 (ip), vehicle: saline with Tween-80 102 % of control | dose: 400.0 mg/kg/injection, schedule: Q04DX003 (ip), vehicle: saline with Tween-80 98 % of control
